Source: patent US20220380338A1, “CYCLOALKYL 3-OXOPIPERAZINE CARBOXAMIDES AND CYCLOHETEROALKYL 3-OXOPIPERAZINE CARBOXAMIDES AS NAV1.8 INHIBITORS” (Merck Sharp & Dohme LLC, priority 2021, published 2022)

Molecular target: T1, human NaV1.8 (Homo sapiens, UniProt Q9Y5Y9)
T1 construct: expressed in transfected cells
Assay: Nav1.8 Qube® Assay (automated 384-well patch-clamp, inhibition of sodium current)
Format: cell-based
Details: human NaV1.8 channels stably expressed in HEK 293 cells, room temperature
Summary of the method: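 Whole-cell voltage clamp at room temperature in HEK293 cells stably expressing NaV1.8; from −90 mV hold, 10 s 1 Hz train of 20 ms pulses to 10 mV with 980 ms repolarization to −67 mV. Peak currents of 1st and 10th pulses give resting and inactivated-state IC50s, Hill fit.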

T1 sequence (Q9Y5Y9 whole entry): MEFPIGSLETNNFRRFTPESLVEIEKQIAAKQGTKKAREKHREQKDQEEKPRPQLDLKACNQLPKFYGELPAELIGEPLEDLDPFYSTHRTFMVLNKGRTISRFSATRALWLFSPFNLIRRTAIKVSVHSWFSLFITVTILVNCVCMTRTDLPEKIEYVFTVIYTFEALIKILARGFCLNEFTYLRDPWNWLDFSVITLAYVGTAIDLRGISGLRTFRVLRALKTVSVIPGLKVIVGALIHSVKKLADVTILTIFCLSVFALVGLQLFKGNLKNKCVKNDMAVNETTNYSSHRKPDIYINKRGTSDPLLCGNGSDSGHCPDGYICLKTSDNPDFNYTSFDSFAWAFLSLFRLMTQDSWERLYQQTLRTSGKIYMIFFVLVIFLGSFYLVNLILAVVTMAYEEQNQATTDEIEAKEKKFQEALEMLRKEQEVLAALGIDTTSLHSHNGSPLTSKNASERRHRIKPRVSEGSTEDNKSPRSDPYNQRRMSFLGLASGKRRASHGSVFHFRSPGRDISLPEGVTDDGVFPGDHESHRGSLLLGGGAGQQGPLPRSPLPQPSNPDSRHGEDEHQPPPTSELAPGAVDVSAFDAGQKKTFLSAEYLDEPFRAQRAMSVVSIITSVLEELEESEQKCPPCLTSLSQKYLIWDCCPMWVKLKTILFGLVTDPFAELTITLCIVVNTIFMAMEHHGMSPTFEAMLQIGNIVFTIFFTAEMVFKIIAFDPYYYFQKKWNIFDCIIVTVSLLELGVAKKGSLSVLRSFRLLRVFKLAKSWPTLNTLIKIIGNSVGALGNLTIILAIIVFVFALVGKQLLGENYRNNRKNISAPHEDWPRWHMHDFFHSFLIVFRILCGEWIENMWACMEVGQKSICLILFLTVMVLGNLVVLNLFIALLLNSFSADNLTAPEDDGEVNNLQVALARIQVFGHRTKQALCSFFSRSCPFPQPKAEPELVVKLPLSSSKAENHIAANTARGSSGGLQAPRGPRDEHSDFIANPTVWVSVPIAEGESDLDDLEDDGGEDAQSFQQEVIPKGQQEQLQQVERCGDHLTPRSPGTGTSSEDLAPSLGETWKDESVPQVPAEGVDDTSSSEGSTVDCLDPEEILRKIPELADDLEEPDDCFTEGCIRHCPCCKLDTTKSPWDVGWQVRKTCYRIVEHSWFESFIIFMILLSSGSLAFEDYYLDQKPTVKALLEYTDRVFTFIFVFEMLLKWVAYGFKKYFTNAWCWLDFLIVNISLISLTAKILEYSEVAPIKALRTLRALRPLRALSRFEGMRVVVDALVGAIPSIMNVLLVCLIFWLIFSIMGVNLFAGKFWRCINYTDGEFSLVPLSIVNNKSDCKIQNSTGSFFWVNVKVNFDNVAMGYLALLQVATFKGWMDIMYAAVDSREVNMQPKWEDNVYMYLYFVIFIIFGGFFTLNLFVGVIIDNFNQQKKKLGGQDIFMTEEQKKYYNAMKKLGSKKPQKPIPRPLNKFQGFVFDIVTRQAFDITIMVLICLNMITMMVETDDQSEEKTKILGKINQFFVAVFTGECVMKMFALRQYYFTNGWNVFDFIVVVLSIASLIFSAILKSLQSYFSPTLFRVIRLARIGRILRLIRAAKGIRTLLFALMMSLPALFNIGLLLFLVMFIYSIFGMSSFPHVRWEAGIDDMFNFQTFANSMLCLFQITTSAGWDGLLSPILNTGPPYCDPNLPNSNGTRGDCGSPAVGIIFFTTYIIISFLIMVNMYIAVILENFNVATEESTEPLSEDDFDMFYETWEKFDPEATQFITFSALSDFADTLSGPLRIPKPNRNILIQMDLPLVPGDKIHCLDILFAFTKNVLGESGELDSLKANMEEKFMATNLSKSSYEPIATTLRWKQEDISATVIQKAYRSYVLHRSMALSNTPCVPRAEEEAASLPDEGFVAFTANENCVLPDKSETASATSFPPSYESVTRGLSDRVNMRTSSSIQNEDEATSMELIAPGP

| IC50 | Compound |
| --- | --- |
| 87.1 nM | C[C@@H]1C(=O)NCCN1C(=O)NC(c1ccc(F)c(Cl)c1)C1CC(OC(F)F)C1 (single isomer, unassigned) [Example 38C, (2R)-N-((S or R)-(3-chloro-4-fluorophenyl) (cis-3-(difluoromethoxy)cyclobutyl)methyl)-2-methyl-3-oxopiperazine-1-carboxamide] |
| 4.18 nM | C[C@@H]1C(=O)NCCN1C(=O)NC(c1ccc(OC(F)(F)F)c(Cl)c1)C1CC(C(F)(F)F)C1 (single isomer, unassigned) [Example 54B, (2R)-N-((S or R)-(3-chloro-4-(trifluoro-methoxy)phenyl)(3-(trifluoromethyl)cyclo-butyl)methyl)-2-methyl-3-oxopiperazine-1-carboxamide] |
| 3.87 nM | O=C1CN(C(=O)NC(c2ccc(F)c(Cl)c2F)[C@H]2CC[C@H](C(F)(F)F)CC2)CCN1 (single isomer, unassigned) [Example 10B, N-((S or R)-(3-chloro-2,4-di-fluorophenyl)(trans-4-(trifluoromethyl)-cyclohexyl)methyl)-3-oxopiperazine-1-carboxamide] |
| 3.5 nM | O=C1CN(C(=O)N[C@H](c2ccc(F)c(Cl)c2)C2CCC(C(F)(F)F)CC2)CCN1 (single isomer, unassigned) [Example 1A] |
| 5.27 nM | O=C1CN(C(=O)NC(c2ccc(Cl)c(C(F)(F)F)n2)C2CCC(C(F)(F)F)CC2)CCN1 (single isomer, unassigned) [Example 45B] |
| 183 nM | O=C1CN(C(=O)N[C@H](c2ccc(F)c(Cl)c2)C2CCC(C(F)(F)F)CC2)CCN1 (single isomer, unassigned) [Example 1B] |
| 0.74 nM | C[C@@H]1C(=O)NCCN1C(=O)NC(c1ccc(F)c(Cl)c1F)C1CC(C)(C)C1 (single isomer, unassigned) [Example 31A, (2R)-N-((R or S)-(3-chloro-2,4-difluoro-phenyl)(3,3-dimethyl-cyclobutyl)methyl)-2-methyl-3-oxopiperazine-1-carboxamide] |
| 1.16 nM | C[C@@H]1C(=O)NCCN1C(=O)NC(c1ccc(F)c(Cl)c1F)C1CC2(C1)CC(F)(F)C2 (single isomer, unassigned) [Example 23, (2R)-N-((R or S)-(3-chloro-2,4-difluoro-phenyl)(6,6-difluoro-spiro[3.3]heptan-2-yl)methyl)-2-methyl-3-oxopiperazine-1-carboxamide] |
| 366 nM | C[C@@H]1C(=O)NCCN1C(=O)NC(c1ccc(Cl)cc1)C1CCN(CC(F)(F)F)CC1 (single isomer, unassigned) [Example 16A, (2R)-N-((R or S)-(4-chlorophenyl)(1-(2,2,2-trifluoroethyl)piperidin-4-yl)methyl)-2-methyl-3-oxopiperazine-1-carboxamide] |

The remaining lines, values behind:

| Compound | IC50 |
| --- | --- |
| C[C@@H]1C(=O)NCCN1C(=O)NC(c1ccc(F)c(Cl)c1F)C1CC(C2CC2)C1 (single isomer, unassigned) [Example 21C, (2R)-N-((S or R)-(3-chloro-2,4-difluoro-phenyl)(trans or cis-3-cyclopropyl-cyclobutyl)-methyl)-2-methyl-3-oxopiperazine-1-carboxamide] | 59.7 nM |
| C[C@@H]1C(=O)NCCN1C(=O)NC(c1ccc(F)c(Cl)c1)C1CC2CCC(C1)C2(F)F (single isomer, unassigned) [Example 3B, (2R)-N-((S or R)-(3-chloro-4-fluoro-phenyl)(8,8-difluoro-bicyclo[3.2.1]octan-3-yl)methyl)-2-methyl-3-oxo-piperazine-1-carboxamide] | 148 nM |
| C=C1CC(C(NC(=O)N2CCNC(=O)[C@H]2C)c2ccc(F)c(Cl)c2F)C1 (single isomer, unassigned) [Example 25B, (2R)-N-((S or R)-(3-chloro-2,4-difluoro-phenyl)(3-methylene-scyclobutyl)methyl)-2-methyl-3-oxopiperazine-1-carboxamide] | 652 nM |
| C[C@@H]1C(=O)NCCN1C(=O)NC(c1ccc(F)c(Cl)c1F)C1CC(C(F)(F)F)C1 (single isomer, unassigned) [Example 20C] | 9.02 nM |
| C[C@@H]1C(=O)NCCN1C(=O)NC(c1ccc(F)c(C(F)(F)F)c1)C1CCC(C(F)(F)F)OC1 (single isomer, unassigned) [Example 60A, (2R)—N-((1(R or S))-(4-fluoro-3-(trifluoromethyl)phenyl)-trans-(6-(trifluoromethyl)tetrahydro-2H-pyran-3-yl)methyl)-2-methyl-3-oxopiperazine-1-carboxamide] | 10.1 nM |
| C[C@@H]1C(=O)NCCN1C(=O)NC(c1ccc(OC(F)(F)F)cc1F)[C@H]1C[C@H](C(F)(F)F)C1 (single isomer, unassigned) [Example 50A, ((2R)-N-((R or S)-(2-fluoro-4-(trifluoro-methoxy)phenyl)(trans-3-(trifluoromethyl)-cyclobutyl)methyl)-2-methyl-3-oxopiperazine-1-carboxamide] | 389 nM |
| C[C@@H]1C(=O)NCCN1C(=O)NC(c1ccc(F)c(Cl)c1F)C1CCC(F)(F)C1 (single isomer, unassigned) [Example 42D, (2R)-N-((S or R)-(3-chloro-2,4-difluoro-phenyl)((S or R)-3,3-difluorocyclopentyl)-methyl)-2-methyl-3-oxopiperazine-1-carboxamide] | 20.1 nM |
| C[C@@H]1C(=O)NCCN1C(=O)NC(c1ccc(F)c(Cl)c1F)C1CC(C(F)(F)F)C1 (single isomer, unassigned) [Example 20D] | 116 nM |
| CC(N1CCC(C(NC(=O)N2CCNC(=O)[C@H]2C)c2ccc(F)c(Cl)c2)CC1)C(F)(F)F (single isomer, unassigned) [Example 18C] | 91.6 nM |
| C[C@@H]1C(=O)NCCN1C(=O)NC(c1ccc(F)c(Cl)c1F)C1CCC(F)(F)C1 (single isomer, unassigned) [Example 42B, (2R)-N-((R or S)-(3-chloro-2,4-difluoro-phenyl)((S or R)-3,3-difluorocyclopentyl)-methyl)-2-methyl-3-oxopiperazine-1-carboxamide] | 2830 nM |
| C[C@@H]1C(=O)NCCN1C(=O)NC(c1ccc(F)c(Cl)c1F)C1CC2(CC2)C1 (single isomer, unassigned) [Example 28B, (2R)—N—((S or R)-(3-chloro-2,4-difluorophenyl)(spiro[2.3]hexan-5-yl)methyl)-2-methyl-3-oxopiperazine-1-carboxamide] | 191 nM |
| C[C@@H]1C(=O)NCCN1C(=O)NC(C)(c1ccc(F)c(Cl)c1)C1CC(C(F)(F)F)C1 (single isomer, unassigned) [Example 48C, (2R)—N—((S or R)-1-(3-chloro-4-fluorophenyl)-1-(cis-3-(trifluoromethyl)cyclobutyl)ethyl)-2-methyl-3-oxopiperazine-1-carboxamide] | 312 nM |
| C[C@@H]1C(=O)NCCN1C(=O)NC(c1ccc(F)c(Cl)c1)C1CCC2(CC1)CC2(F)F (single isomer, unassigned) [Example 19C] | 15.7 nM |
| Cc1cc(C(NC(=O)N2CCNC(=O)[C@H]2C)C2CCC(C(F)(F)F)CC2)ccc1F (single isomer, unassigned) [Example 36C] | 58.1 nM |
| C[C@@H]1C(=O)NCCN1C(=O)NC(c1cc(F)c(F)c(F)c1)[C@H]1CC[C@H](C(F)(F)F)CC1 (single isomer, unassigned) [Example 6A, (R)-2-methyl-3-oxo-N-((R or S)-(trans-4-(trifluoromethyl)cyclo-hexyl)(3,4,5-tri-fluorophenyl)methyl) piperazine-1-carboxamide] | 232 nM |
| C[C@@H]1C(=O)NCCN1C(=O)NC(c1ccc(F)c(Cl)c1F)C1CCC(F)(F)C1 (single isomer, unassigned) [Example 42C, (2R)-N-((S or R)-(3-chloro-2,4-difluoro-phenyl)((R or S)-(3,3-difluorocyclopentyl)-methyl)-2-methyl-3-oxopiperazine-1-carboxamide] | 24.1 nM |
| C[C@@H]1C(=O)NCCN1C(=O)N[C@H](c1ccc(F)c(Cl)c1)C1CCC(C(F)(F)F)CC1 (single isomer, unassigned) [Example 5B, (2R)-N-((S or R)-(3-chloro-4-fluoro-phenyl)(trans-4-(tri-fluoromethyl)cyclo-hexyl)methyl)-2-methyl-3-oxo-piperazine-1-carboxamide] | 4.2 nM |
| C[C@@H]1C(=O)NCCN1C(=O)NC(c1ccc(F)c(Cl)c1F)C1CCC(C(F)(F)F)C1 (single isomer, unassigned) [Example 58C, (2R)—N—((R or S)-(3-chloro-2,4-difluorophenyl)(trans-3-(trifluoromethyl)cyclopentyl)methyl)-2-methyl-3-oxopiperazine-1-carboxamide] | 5.1 nM |
| C[C@@H]1C(=O)NCCN1C(=O)NC(c1ccc(F)c(C(F)(F)F)c1)[C@H]1C[C@H](C(F)(F)F)C1 (single isomer, unassigned) [Example 51A, (2R)-N-((R or S)-(4-fluoro-3-(trifluoro-methyl)phenyl)(trans-3-(trifluoro-methyl)-cyclo-butyl)methyl)-2-methyl-3-oxo-piperazine-1-carboxamide] | 117 nM |
| C[C@@H]1C(=O)NCCN1C(=O)NC(c1ccc(F)c(Cl)c1)C12CC(C(F)(F)F)(C1)C2 (single isomer, unassigned) [Example 35B, (2R)-N-((S or R)-(3-chloro-4-fluoro-phenyl)(3-(trifluoro-methyl)bicyclo[1.1.1]pen-tan-1-yl)methyl)-2-methyl-3-oxopiperazine-1-carboxamide] | 48.6 nM |
| C[C@@H]1C(=O)NCCN1C(=O)NC(c1ccc(F)c(Cl)c1F)C1CC(OC(F)F)C1 (single isomer, unassigned) [Example 39A, (2R)-N-((R or S)-(3-chloro-2,4-difluoro-phenyl)(trans-3-(difluoromethoxy)-cyclobutyl)methyl)-2-methyl-3-oxopiperazine-1-carboxamide] | 816 nM |
| C[C@@H]1C(=O)NCCN1C(=O)NC(c1ccc(F)c(Cl)c1)C1CCC2(CC1)CC2(F)F (single isomer, unassigned) [Example 19B] | 3.23 nM |
